Experimental data as given in paper PMC10033419, “Blocking NS3–NS4B interaction inhibits dengue virus in non-human primates” (Nature, 2023).
Where “and” joins values, the source holds several entries; their conditions need not be identical. Equal entries are not always repeated.

How the values were obtained:
DENV-2 RL strain = assay: Day 3 viraemia model, high viral inoculum (10^6 PFU); format: in vivo, AG129 mice
DENV-2/16681 = assay: NHP DENV-2 study, anti-DENV IgM ELISA; set-up: species or system rhesus macaques (M. mulatta); conditions: rhesus monkey, in vivo
Plasma protein binding = format: in vitro ADME; conditions: mouse, mice
[1] = Study 1+2+3 compiled data, 60 mg/kg/d, individual animals, listed as 64281802-AAA, 60 mg/kg/day
[2] = Study 1 - 160222, 2 mg/kg/d, individual animals, listed as 64281802-AAA
[3] = Study 1 - 160222, 6 mg/kg/d, individual animals, listed as 64281802-AAA
[4] = Study 1 - 160222, 60 mg/kg/d, individual animals, listed as 64281802-AAA
[5] = Study 2 - 160510, 0,6 mg/kg/d, individual animals, listed as 64281802-AAA
[6] = Study 2 - 160510, 2 mg/kg/d, individual animals, listed as 64281802-AAA
[7] = Study 2 - 160510, 6 mg/kg/d, individual animals, listed as 64281802-AAA
[8] = Study 2 - 160510, 20 mg/kg/d, individual animals, listed as 64281802-AAA
[9] = Study 3 - 170410, 0,2 mg/kg/d, first group of 8, individual animals, listed as 64281802-AAA
[10] = Study 3 - 170410, 0,2 mg/kg/d, second group of 8, individual animals, listed as 64281802-AAA
[11] = Study 3 - 170410, 0,6 mg/kg/d, individual animals, listed as 64281802-AAA
[12] = Study 3 - 170410, 20 mg/kg/d, individual animals

## COc1cc(N[C@H](C(=O)c2c[nH]c3ccc(OC(F)(F)F)cc23)c2ccc(Cl)cc2OC)cc(S(C)(=O)=O)c1 [JNJ-1802]
DENV-2 RL strain; Study 1+2+3 compiled data, 60 mg/kg/d, group average
  Av Log 10 (average): 3.05
DENV-2 RL strain; Study 1+2+3 compiled data, 60 mg/kg/d, group median
  Av Log 10 (Ave/Med: median): 2.59
DENV-2 RL strain; [1]
  Copy number: 3.93E+02 and 1.22E+04 and 1.55E+03 and 5.28E+03
  Log 10 (copy number): 2.59 and 4.09 and 3.19 and 3.72
DENV-2 RL strain; Study 1 - 160222, 2 mg/kg/d, group average
  Av Log 10 (average): 5.30
DENV-2 RL strain; Study 1 - 160222, 2 mg/kg/d, group median
  Av Log 10 (Ave/Med: median): 5.60
DENV-2 RL strain; [2]
  Copy number: 8.93E+05 and 4.00E+05 and 3.96E+05 and 1.24E+06 and 6.51E+05 and 1.32E+04 and 2.02E+05
  Log 10 (copy number): 5.95 and 5.60 and 6.09 and 5.81 and 3.95 and 4.12 and 5.30
DENV-2 RL strain; Study 1 - 160222, 6 mg/kg/d, group average
  Av Log 10 (average): 4.74
DENV-2 RL strain; Study 1 - 160222, 6 mg/kg/d, group median
  Av Log 10 (Ave/Med: median): 4.84
DENV-2 RL strain; [3]
  Copy number: 5.85E+04 and 1.40E+05 and 1.03E+05 and 2.15E+04 and 1.94E+05 and 8.27E+04 and 1.06E+04 and 2.60E+04
  Log 10 (copy number): 4.77 and 5.15 and 5.01 and 4.33 and 5.29 and 4.92 and 4.03 and 4.41
DENV-2 RL strain; Study 1 - 160222, 60 mg/kg/d, group average
  Av Log 10 (average): 3.05
DENV-2 RL strain; Study 1 - 160222, 60 mg/kg/d, group median
  Av Log 10 (Ave/Med: median): 2.59
DENV-2 RL strain; [4]
  Copy number: 3.93E+02 and 1.22E+04 and 1.55E+03 and 5.28E+03
  Log 10 (copy number): 2.59 and 4.09 and 3.19 and 3.72
DENV-2 RL strain; Study 2 - 160510, 0,6 mg/kg/d, group average
  Av Log 10 (average): 4.52
DENV-2 RL strain; Study 2 - 160510, 0,6 mg/kg/d, group median
  Av Log 10 (Ave/Med: median): 4.66
DENV-2 RL strain; [5]
  Copy number: 3.02E+04 and 4.20E+05 and 7.57E+04 and 6.60E+04 and 3.93E+02 and 1.74E+04 and 1.01E+05 and 3.12E+04
  Log 10 (copy number): 4.48 and 5.62 and 4.88 and 4.82 and 2.59 and 4.24 and 5.00 and 4.49
DENV-2 RL strain; Study 2 - 160510, 2 mg/kg/d, group average
  Av Log 10 (average): 4.07
DENV-2 RL strain; Study 2 - 160510, 2 mg/kg/d, group median
  Av Log 10 (Ave/Med: median): 4.30
DENV-2 RL strain; [6]
  Copy number: 2.06E+04 and 6.20E+04 and 1.87E+04 and 2.60E+04 and 3.93E+02 and 1.87E+05
  Log 10 (copy number): 4.31 and 4.28 and 4.79 and 4.27 and 4.41 and 2.59 and 5.27
DENV-2 RL strain; Study 2 - 160510, 6 mg/kg/d, group average
  Av Log 10 (average): 3.78
DENV-2 RL strain; Study 2 - 160510, 6 mg/kg/d, group median
  Av Log 10 (Ave/Med: median): 3.87
DENV-2 RL strain; [7]
  Copy number: 9.12E+03 and 5.17E+03 and 3.62E+04 and 5.97E+03 and 3.93E+02
  Log 10 (copy number): 3.96 and 3.71 and 4.56 and 4.11 and 3.78 and 2.59
DENV-2 RL strain; Study 2 - 160510, 20 mg/kg/d, group average
  Av Log 10 (average): 2.83
DENV-2 RL strain; Study 2 - 160510, 20 mg/kg/d, group median
  Av Log 10 (Ave/Med: median): 2.59
DENV-2 RL strain; [8]
  Copy number: 1.05E+04 and 3.93E+02
  Log 10 (copy number): 4.02 and 2.59
DENV-2 RL strain; Study 3 - 170410, 0,2 mg/kg/d, first group of 8, group average
  Av Log 10 (average): 6.01
DENV-2 RL strain; Study 3 - 170410, 0,2 mg/kg/d, first group of 8, group median
  Av Log 10 (Ave/Med: median): 6.07
DENV-2 RL strain; [9]
  Copy number: 1.86E+06 and 1.20E+06 and 1.13E+06 and 8.80E+05 and 2.24E+05 and 2.37E+06
  Log 10 (copy number): 6.27 and 6.08 and 6.05 and 5.94 and 5.35 and 6.38
DENV-2 RL strain; Study 3 - 170410, 0,2 mg/kg/d, second group of 8, group average
  Av Log 10 (average): 5.85
DENV-2 RL strain; Study 3 - 170410, 0,2 mg/kg/d, second group of 8, group median
  Av Log 10 (Ave/Med: median): 6.03
DENV-2 RL strain; [10]
  Copy number: 1.58E+06 and 7.37E+04 and 5.97E+06 and 8.67E+05 and 1.42E+06 and 1.06E+06 and 9.43E+04
  Log 10 (copy number): 6.20 and 4.87 and 6.78 and 5.94 and 6.15 and 6.03 and 4.97
DENV-2 RL strain; Study 3 - 170410, 0,6 mg/kg/d, group average
  Av Log 10 (average): 3.92
DENV-2 RL strain; Study 3 - 170410, 0,6 mg/kg/d, group median
  Av Log 10 (Ave/Med: median): 4.48
DENV-2 RL strain; [11]
  Copy number: 3.45E+04 and 2.62E+04 and 3.90E+04 and 3.93E+02
  Log 10 (copy number): 5.16 and 4.86 and 4.54 and 4.42 and 4.59 and 2.59
DENV-2 RL strain; Study 3 - 170410, 20 mg/kg/d, group average
  Av Log 10 (average): 2.59
DENV-2 RL strain; Study 3 - 170410, 20 mg/kg/d, group median
  Av Log 10 (Ave/Med: median): 2.59
DENV-2 RL strain; [12]
  Copy number: 3.93E+02
  Log 10 (copy number): 2.59
DENV-2 RL strain; mouse, in vivo, 6 mg/kg/day
  Copy number: 1.28E+04
DENV-2/16681
  IgG and IgM seroconversion: occurred in all of the animals
  IgM seroconversion: occurred at later timepoints
  animals with detectable anti-DENV IgM: one out of three
Plasma protein binding
  fraction unbound: < 0.001
